Earlier results, collected in patent publication US9061061B2, “Method of treating dysglycemia and glucose excursions” (ORX PHARMACEUTICAL CORPORATION, priority 2008, dated 2015).

Settings: single 850 mg tablet

lower peak plasma concentration (Cmax) with food compared to fasting: ~40% | prolongation of time to peak plasma concentration (Tmax) with food: 35 min
Compound: CN(C)C(=N)N=C(N)N [metformin]
